Results from patent publication US8609585B2 (priority 2008, dated 2013).
Like-named read-outs stand apart in the source and are kept apart here.

Key:
Format in all cases: in vivo
[1] = test system: Plasmopara viticola, pathogen of grape downy mildew; test: Grape downy mildew control test, foliage application (Test Example 3)
Excerpt: (§1) Control value=100(A−B)/A “Equation 1”
A plastic pot was filled with sandy soil, and grape (Berry A) was then disseminated. The grape was allowed to grow in a green house for 40 days. A wettable powder of the compound (1b) and a wettable powder of ethaboxam were respectively diluted with water and then tank-mixed so as to prepare tank-mixed liquids containing compound (1b) and ethaboxam in predetermined concentration. The tank-mixed liquids were subjected to foliage application such that they could be sufficiently adhered to the underside of the leaves of the aforementioned grape plants. After the foliage application, the plants were air-dried. Thereafter, an aqueous suspension of sporangia of Plasmopara viticola, pathogen of grape downy mildew, was sprayed on the grape plants to inoculate the pathogen. They were placed at 23° C. under high humidity for one day after the inoculation, cultured in a greenhouse at 23° C. for 5 days. The grape plants were thereafter placed at 23° C. under high humidity for one day and infected area was checked.
As a comparison, the respective wettable powders described above were diluted with water in predetermined concentration so as to prepare compound (1b) liquids and a ethaboxam liquid respectively and they were subjected to similar disease control test. In order to calculate the control value, the incidence of disease was also determined in the case in which the plants had not been treated with the agent. The relative incidence of disease of each treated area was determined as the incidence of disease of the area assuming that the incidence of disease of untreated area was represented as 100, and the control value was calculated by Equation 1 based on the incidence of disease thus determined.

[2] = test system: Phytophthora infestans, pathogen of tomato late blight; conditions: foliage application
[3] = test system: Pythium ultimum, pathogen of cucumber damping-off; test: Cucumber damping-off control test, seed treatment (Test Example 2)
Description: as §1
Generally, the control value expected for the case in which the given two kinds of active ingredient compounds are mixed and used for the treatment, the so-called control value expectation is calculated from the following Colby's calculating equation. E=X+Y−(X×Y)/100 “Equation 2”
E: Control value (%) expected for the case in which active ingredient compound A in M ppm or in M g per 100 kg of seeds and active ingredient compound B in N ppm or in N g per 100 kg of seeds are mixed and used for treatment (hereinbelow referred to as “control value expectation”) “Synergetic effect(%)”=(Actual control value)×100/(Control value expectation)
An acetone solution of the compound (1b) and an acetone solution of ethaboxam were mixed to prepare mixed liquids containing the compound (1b) and ethaboxam in predetermined concentration. These mixed liquids were adhered on the surface of cucumber (Sagamihanjiro) seeds and allowed to stand still overnight to obtain treated seeds. A plastic pot was filled with sandy soil and the treated seeds were disseminated on it. Then the seeds were covered with sandy soil which had been mixed with a bran medium on which Pythium ultimum, pathogen of cucumber damping-off, had been allowed to grow. They were irrigated and allowed to grow at 18° C. under humidity for 13 days, and thereafter control effect was checked. The incidence of disease was calculated by Equation 3 and the control value was calculated by Equation 1 based on the incidence of disease.
As a comparison, acetone solutions containing the compound (1b) in the predetermined concentration and an acetone solution containing ethaboxam in the predetermined concentration were prepared and subjected to similar tests. Incidence of disease=(Number of no emerging seedlings and number of seedlings in which development of disease was observed)×100/(Number of total disseminated seeds) “Equation 3”

With `CNC(=O)C(OC)c1ccccc1COc1cc(C)ccc1C` (racemic) [Compound (1b)] as the molecule, how does the Actual control value ([1]; compound (1b) 2 ppm alone) read?
The Actual control value was 2%.

What about the Actual control value ([2]; compound (1b) 10 ppm alone) of the same molecule?
The Actual control value was 5%.

What about the Actual control value ([2]; compound (1b) 50 ppm alone) of the same molecule?
The Actual control value was 25%.

What about the Actual control value ([3]; compound (1b) 5 g ai/100 kg-seed alone) of the same molecule?
The Actual control value was 6.7%.

What about the Actual control value ([3]; compound (1b) 10 g ai/100 kg-seed alone) of the same molecule?
Its Actual control value is 6.7%.

And the Actual control value ([3]; compound (1b) 20 g ai/100 kg-seed alone)?
Its Actual control value is 13%.

What does the source list for `CCNc1nc(CC)c(C(=O)NC(C#N)c2cccs2)s1` (stereo not shown) [Ethaboxam, ethaboxam, reference compound]?
Actual control value ([1]; ethaboxam 0.4 ppm alone): 1%; Actual control value ([1]; ethaboxam 2 ppm alone): 35%; Actual control value ([2]; ethaboxam 0.4 ppm alone): 10%; Actual control value ([3]; ethaboxam 10 g ai/100 kg-seed alone): 73%
